In experiment [1] the test system is LPS stimulated human PBMCs. The experiment in a line: LPS stimulated human PBMC, IL-1β and IL-6 ELISA. The format is cell-based. To be noted: for inhibition of IL-1β and IL-6: Experiment 12: free payloads 1000-0.15 nM. The method, then: The potency of novel steroids was assessed in a model of LPS stimulated human peripheral blood mononuclear cells (PBMCS). Stimulated PBMCs in this assay produce multiple pro-inflammatory cytokines1.
In all the following experiments, human PBMC, isolated from 1-2 healthy donors per study, were stimulated with LPS to induce cytokine production.
LPS was added either immediately after addition of free payload, or in the case of conjugates, four hours after addition of the conjugate.
Cells were plated in flat bottom 96 well plates at a final concentration of 150,000 cells/well, with technical duplicates for each condition.
Test agents were serially diluted in the assay media and added to a final concentration of 1,000 nM-1 nM or 0.2 nM depending on the assay or as a no treatment control.
LPS stimulation was added to a final concentration of 1 ng/ml.
Human IL-1β and IL-6 ELISA kits were used on supernatants according to vendor protocols. All graphs were prepared with GraphPad (Prism).

In experiment [2] the test system is human PBMC. The experiment in a line: Cytokine production (IL-1β, IL-6) at 24 hr by human PBMC incubated with 1 ng/mL LPS. The format is cell-based. To be noted: for inhibition of IL-1β production / inhibition of IL-6 production: free steroid payloads, serial dilutions, 1 ng/mL LPS, 24 hr. The method, then: FIG. 51: INX-SM-3, INX-SM-4, and INX-SM-1 inhibit IL-1β (left) and IL-6 (right) production. Cytokine levels were measured at 24 hr for human PBMCS incubated with 1 ng/mL LPS and serial dilutions (1000-1 nM) of steroid payloads, with the no treatment control plotted on the log-scale x-axis at <1 nM; n=1 donor, standard deviation plotted from technical duplicates.
FIG. 52: INX-SM-1, INX-SM-3, INX-SM-4 and INX-SM-6 inhibit IL-1β production. Cytokine levels measured at 24 hr for human PBMCS incubated with 1 ng/ml LPS and serial dilutions (1000-1 nM) of steroid payloads, with the no treatment control plotted on the log-scale x-axis at <1 nM; n=1 donor, standard deviation plotted from technical duplicates.
FIG. 53: INX-SM-9, INX-SM-31 and INX-SM-35 inhibit IL-1β (top) and IL-6 (bottom) production. Cytokine levels measured at 24 hr for human PBMCS incubated with 1 ng/mL LPS and serial dilutions (1000-0.2 nM) of steroid payloads, with the no treatment control plotted on the log-scale x-axis at <0.2 nM; n=2 donors-representative donor shown. Standard deviation plotted from technical duplicates.
FIG. 54: INX-SM-32 inhibits IL-1β (top) and IL-6 (bottom) production. Cytokine levels measured at 24 hr for human PBMCS incubated with 1 ng/mL LPS and serial dilutions (500-1 nM) of steroid payloads, with the no treatment control plotted on the log-scale x-axis at <1 nM; n=2. Representative donor shown. Standard deviation plotted from technical duplicates.
Cytokine levels measured at 24 hr for human PBMCS incubated with 1 ng/ml LPS and serial dilutions (1000-0.5 nM) of steroid payloads, with the no treatment control plotted on the log-scale x-axis at <0.5 nM; n=1 donor, standard deviation plotted from technical duplicates.
FIG. 56: INX-SM-2 and INX-SM-7 show inhibition in IL-1β. Average Cytokine levels measured at 24 hr for human PBMCS incubated with 1 ng/ml LPS and serial dilutions (1000-0.16 nM) of steroid payloads, with the no treatment control plotted on the log-scale x-axis at <0.16 nM; n=1, standard deviation plotted from technical duplicates. […]
Average cytokine levels measured at 24 hr for human PBMC incubated with 1 ng/ml LPS and serial dilutions (100-0.032 nM) of glucocorticoid payloads; n=1, mean of technical duplicates.
Average cytokine levels measured at 24 hr for human PBMC incubated with 1 ng/mL LPS and serial dilutions (1000-0.32 nM) of glucocorticoid payloads; n=1, mean of technical duplicates.
Cytokine levels measured at 24 hr for human PBMC incubated with 1 ng/mL LPS and serial dilutions (1000-0.5 nM) of steroid payloads, with the no treatment control plotted on the log-scale x-axis at <0.5 nM; n=1 donor, mean of technical duplicates plotted.
Average cytokine levels for A. hull-1β B. huIL-6 measured at 24 hr for human PBMC incubated with 1 ng/mL LPS and serial dilutions (1000-0.16 nM) of conjugated steroid linker payloads, with the no treatment control plotted on the log-scale x-axis at <0.16 nM; n=1, standard deviation plotted from technical duplicates. Values above the ULOQ (12,500 pg/mL for IL-1b and 150,000 pg/mL for IL-6) were plotted as the extrapolated value.
Average cytokine levels for IL-1β measured at 24 hr for human PBMC incubated with 1 ng/mL LPS and serial dilutions (1000-0.16 nM) of conjugated steroid linker payloads, with the no treatment control plotted on the log-scale x-axis at <0.16 nM; n=1, mean plotted of technical duplicates
Average cytokine levels for IL-1β measured at 24 hr for human PBMC incubated with 1 ng/mL LPS and serial dilutions (1000-0.16 nM) of conjugated steroid linker payloads, with the no treatment control plotted on the log-scale x-axis at <0.16 nM; n=1, mean plotted of technical duplicates.
FIG. 66: Analogs of INX V are potent relative to INX231J. […]

Setting [3] is: Experiment 8: free payload 1000-0.5 nM.

This is an account of results in patent publication US20250108119A1, “NOVEL STEROID PAYLOADS, STEROID LINKERS, ADCs CONTAINING AND USE THEREOF” (IMMUNEXT, INC., priority 2021, published 2025).

On to `C[C@]12C=CC(=O)C=C1CC[C@@H]1[C@@H]2[C@@H](O)C[C@@]2(C)[C@H]1C[C@H]1O[C@@H](c3ccc(CC4CC45CCC(N)CC5)cc3)O[C@]12C(=O)CO` (stereo partly drawn) [INX-SM-46, (6aR,6bS,7S,8aS,8bS,10R,11aR,12aS,12bS)-10-(4-((6-aminospiro[2.5]octan-1-yl)methyl)phenyl)-7-hydroxy-8b-(2-hydroxyacetyl)-6a,8a-dimethyl-1,2,6a,6b,7,8,8a,8b,11a,12,12a,12b-dodecahydro-4H-naphtho[2′,1′:4,5]indeno[1,2-d][1,3]dioxol-4-one 2,2,2-trifluoroacetate], for which the “inhibition of IL-1β production” value in experiment [1] (setting [3]) is recorded as “more modest inhibition of cytokine production”; in experiment [2], “more modest inhibition”.
In the case of `C[C@]12C=CC(=O)C=C1[C@@H](F)C[C@H]1[C@@H]3C[C@H]4O[C@@H](c5ccc(CC6CC7(C6)CC(NC(=O)[C@H](CCC(=O)O)NC(=O)CNC(=O)CBr)C7)cc5)O[C@@]4(C(=O)CO)[C@@]3(C)C[C@H](O)[C@@]12F` (stereo partly drawn) [INX A23, (S)-4-(2-(2-bromoacetamido)acetamido)-5-((6-(4-((2S,6aS,6bR,7S,8aS,8bS,10R,11aR,12aS,12bS)-2,6b-difluoro-7-hydroxy-8b-(2-hydroxyacetyl)-6a,8a-dimethyl-4-oxo-2,4,6a,6b,7,8,8a,8b,11a,12,12a,12b-dodecahydro-1H-naphtho[2′,1′:4,5]indeno[1,2-d][1,3]dioxol-10-yl)benzyl)spiro[3.3]heptan-2-yl)amino)-5-oxopentanoic acid], the “potency of conjugated linker payloads over INX J (conclusions)” value in experiment [1] is “enhanced potency”. The “potency in reducing IL-1β production” value in experiment [2] (anti-VISTA conjugates, serial dilutions with respect to total ADC concentration (20-0.003 μg/mL), equivalent or reduced DAR) is “enhanced potency”.
Consider `C[C@]12C=CC(=O)C=C1CC[C@@H]1[C@@H]2[C@@H](O)C[C@@]2(C)[C@H]1C[C@H]1O[C@@H](c3cnc(Cc4cccc(N)c4)s3)O[C@]12C(=O)CO` [INX-SM-6], for which the “inhibition of IL-1β production” value is on record as “show inhibition in IL-1β production” in experiment [1] (Experiment 2: free payload 1000-1 nM, 24 hr, n=1 donor) and “inhibit” in experiment [2].
For `C[C@]12C=CC(=O)C=C1CC[C@@H]1[C@@H]2[C@@H](O)C[C@@]2(C)[C@H]1C[C@H]1O[C@@H](c3ccc(OC4CC5(CC(N)C5)C4)cc3)O[C@]12C(=O)CO` (stereo partly drawn) [INX-SM-43, (6aR,6bS,7S,8aS,8bS,10R,11aR,12aS,12bS)-10-(4-((6-aminospiro[3.3]heptan-2-yl)oxy)phenyl)-7-hydroxy-8b-(2-hydroxyacetyl)-6a,8a-dimethyl-1,2,6a,6b,7,8,8a,8b,11a,12, 12a,12b-dodecahydro-4H-naphtho[2′,1′:4,5]indeno[1,2-d][1,3]dioxol-4-one], the “inhibition of huIL1-β” value in experiment [1] (Experiment 7: free payload, INX-SM-43 100-0.032 nM, INX-SM-44 1000-0.32 nM) is recorded as “moderate inhibition of huIL1-β”. Moreover, the “inhibition of IL-1β production” value in experiment [2] is “moderate inhibition”.
Take `C[C@]12C=CC(=O)C=C1CC[C@@H]1[C@@H]2[C@@H](O)C[C@@]2(C)[C@H]1C[C@H]1O[C@@H](c3ccc(Cc4csc(N)n4)cc3)O[C@]12C(=O)CO` [INX-SM-2, (6aR,6bS,7S,8aS,8bS,10R,11aR,12aS,12bS)-10-(4-((2-aminothiazol-4-yl)methyl)phenyl)-7-hydroxy-8b-(2-hydroxyacetyl)-6a,8a-dimethyl-1,2,6a,6b,7,8,8a,8b,11a,12,12a,12b-dodecahydro-4H-naphtho[2′,1′:4,5]indeno[1,2-d][1,3]dioxol-4-one]: the “inhibition of IL-1β production” value was “dose-dependent inhibition in IL-1β production” in experiment [1] (Experiment 6: free payload 1000-0.16 nM, 24 hr) and “inhibition” in experiment [2].
For `C[C@]12C=CC(=O)C=C1CC[C@@H]1[C@@H]2[C@@H](O)C[C@@]2(C)[C@H]1C[C@H]1CN(c3ccc(Cc4cccc(N)c4)cc3)C[C@]12C(=O)CO` [INX-SM-40, (6aR,6bS,7S,8aS,8bS,11aR,12aS,12bS)-10-(4-(3-aminobenzyl)phenyl)-7-hydroxy-8b-(2-hydroxyacetyl)-6a,8a-dimethyl-1,6a,6b,7,8,8a,8b,9,10,11,11a,12,12a,12b-tetradecahydronaphtho[2′,1′:4,5]indeno[1,2-c]pyrrol-4 (2H)-one], the “inhibition of IL-1β and IL-6” value in experiment [1] is “weakly inhibit IL-1β and IL-6”. In addition, in experiment [2], the “inhibition of IL-1β production” value was “weakly inhibit” and the “inhibition of IL-6 production” value is reported as “weakly inhibit”.
In the case of `C[C@]12C=CC(=O)C=C1[C@@H](F)C[C@H]1[C@@H]3C[C@H]4O[C@@H](c5ccc(CC6CC7(CC(N)C7)C6)cc5)O[C@@]4(C(=O)CO)[C@@]3(C)C[C@H](O)[C@@]12F` (stereo partly drawn) [INX-SM-25, (2S,6aS,6bR,7S,8aS,8bS,10R,11aR,12aS,12bS)-10-(4-((6-aminospiro[3.3]heptan-2-yl)methyl)phenyl)-2,6b-difluoro-7-hydroxy-8b-(2-hydroxyacetyl)-6a,8a-dimethyl-1,2,6a,6b,7,8,8a,8b,11a,12,12a,12b-dodecahydro-4H-naphtho[2′,1′:4,5]indeno[1,2-d][1,3]dioxol-4-one], the “inhibition of IL-1β production” value is listed as “robust inhibition in IL-1B production” in experiment [1] (setting [3]) and “robust inhibition” in experiment [2].
As to `C[C@]12C=CC(=O)C=C1CC[C@@H]1[C@@H]2[C@@H](O)C[C@@]2(C)[C@H]1C[C@H]1CN(c3ccc(CC4CC5(CC(N)C5)C4)cc3)C[C@]12C(=O)CO` (stereo partly drawn) [INX-SM-37, (6aR,6bS,7S,8aS,8bS,11aR,12aS,12bS)-10-(4-((6-aminospiro[3.3]heptan-2-yl)methyl)phenyl)-7-hydroxy-8b-(2-hydroxyacetyl)-6a,8a-dimethyl-1,6a,6b,7,8,8a,8b,9,10,11,11a,12,12a,12b-tetradecahydronaphtho[2′,1′:4,5]indeno[1,2-c]pyrrol-4 (2H)-one], the “potency of free payloads (conclusions)” value in experiment [1] was “lowest potency among the R stereoisomers of the series”. Besides, the “inhibition of IL-1β” value in experiment [1] (Experiment 11: free payloads 1000-0.15 nM) is recorded as “weakly inhibits IL-1β”. The “inhibition of IL-1β production” value in experiment [2] is “weakly inhibits”.
`CNC1CC(Cc2ccc([C@@H]3O[C@@H]4C[C@H]5[C@@H]6CCC7=CC(=O)C=C[C@]7(C)[C@H]6[C@@H](O)C[C@]5(C)[C@]4(C(=O)CO)O3)cc2)C1` (stereo partly drawn) [INX-SM-49, (6aR,6bS,7S,8aS,8bS,10R,11aR,12aS,12bS)-7-hydroxy-8b-(2-hydroxyacetyl)-6a,8a-dimethyl-10-(4-((3-(methylamino)cyclobutyl)methyl)phenyl)-1,2,6a,6b,7,8,8a,8b,11a,12,12a,12b-dodecahydro-4H-naphtho[2′,1′:4,5]indeno[1,2-d][1,3]dioxol-4-one]: the “inhibition of IL-1β and IL-6” value in experiment [1] was “weakly inhibit IL-1β and IL-6”. In experiment [2], the “inhibition of IL-1β production” value is listed as “weakly inhibit” and the “inhibition of IL-6 production” value is on record as “weakly inhibit”.
